Source: US20150374666A1, “AQUEOUS LIQUID COMPOSITION INCLUDING HIGH CONCENTRATION OF L-HISTIDINE” (AJINOMOTO CO., INC., priority 2013, published 2015)

Experiment: solubility of histidine added to acidic aqueous solution, left standing at room temperature for 24 hr
Type: physicochemical
Experimental: (§1) Acidic substances (acetic acid, phosphoric acid, citric acid, malic acid, or tartaric acid) in the amounts indicated in Table 1 were added to and dissolved in water at 80 to 100° C. to prepare acidic aqueous solutions. Then, to the prepared acidic aqueous solutions was added histidine (HIS) in the amounts indicated in Table 1, and the mixtures were thoroughly stirred. The mixtures were left standing at room temperature for 24 hr, and the solubility of histidine was examined.
Acidic substances (citric acid, malic acid or tartaric acid) in the amounts indicated in Table 2 were added to and dissolved in water at 80 to 100° C. to prepare acidic aqueous solutions. Then, to the prepared acidic aqueous solutions was added histidine (HIS) in the amounts indicated in Table 2 to a concentration of not less than 45 wt %, and the mixtures were thoroughly stirred. The mixtures were left standing at room temperature for 24 hr, and the solubility of histidine was examined. In Table 2, “-” in the pH column means unmeasurable. In Table 2, the composition with *2 was prepared after preparation of the composition with *1, by reducing the amount of water by evaporation under reduced pressure.
Citric acid in the amount indicated in Tables 3 to 5 were added to and dissolved in water at 80 to 100° C. to prepare acidic aqueous solutions. Then, to the prepared acidic aqueous solutions was added histidine (HIS) in the amounts indicated in Tables 3 to 5, and the mixtures were thoroughly stirred. The mixtures were left standing at room temperature for 24 hr, and the solubility of histidine was examined. In Table 5, the composition with *2 was prepared after preparation of the composition with *1, by reducing the amount of water by evaporation under reduced pressure.
as §1, with “substances (citric acid or” for “substances (acetic acid, phosphoric acid, citric acid,”, “malic” for “malic acid, or tartaric”, “Table 6 and 7” for “Table 1”, “histidine” for “histidine (HIS)”, “Table 6 and 7 to a concentration of 20 wt % or 30 wt %,” for “Table 1,”

With `N[C@@H](Cc1c[nH]cn1)C(=O)O` [HIS, histidine] the “preparation of liquid composition having a histidine concentration of not less than 47.4 wt %” value (0.56 part by weight of citric acid or malic acid per 1 part by weight of histidine) was “could not be prepared”, the solubility (Table 1: citric acid 60 g, water 50 g, His 90 g, acidic substance/HIS 0.67 W/W, pH before His addition 0.40, HIS concentration 45.0 % (W/W) in liquid, room temperature 24 hr) was “∘” and the solubility (Table 1: citric acid 65 g, water 50 g, His 100 g, acidic substance/HIS 0.65 W/W, pH before His addition 0.30, HIS concentration 46.5 % (W/W) in liquid, room temperature 24 hr) was “∘”. For the same molecule, the solubility (Table 1: citric acid 80 g, water 50 g, His 120 g, acidic substance/HIS 0.67 W/W, pH before His addition 0.10, HIS concentration 48.0 % (W/W) in liquid, room temperature 24 hr) was “∘”, the solubility (Table 1: malic acid 60 g, water 50 g, His 90 g, acidic substance/HIS 0.67 W/W, pH before His addition 0.40, HIS concentration 45.0 % (W/W) in liquid, room temperature 24 hr) was “∘” and the solubility (Table 1: tartaric acid 60 g, water 50 g, His 90 g, acidic substance/HIS 0.67 W/W, pH before His addition 0.20, HIS concentration 45.0 % (W/W) in liquid, room temperature 24 hr) was “∘”. The solubility (Table 2 (*1): citric acid 60 g, water 50 g, His 90 g, acidic substance/HIS 0.67 W/W, pH before His addition 0.40, HIS concentration 45.0 % (W/W) in liquid, room temperature 24 hr) was “∘”, the solubility (Table 2 (*2, water reduced by evaporation under reduced pressure from *1): citric acid 60 g, water 10 g, His 90 g, acidic substance/HIS 0.67 W/W, HIS concentration 56.3 % (W/W) in liquid) was “∘” and the solubility (Table 2 (*2, water reduced by evaporation under reduced pressure from *1): citric acid 60 g, water 20 g, His 90 g, acidic substance/HIS 0.67 W/W, HIS concentration 52.9 % (W/W) in liquid) was “∘”. For the same molecule, the solubility (Table 2: citric acid 65 g, water 50 g, His 100 g, acidic substance/HIS 0.65 W/W, pH before His addition 0.30, HIS concentration 46.5 % (W/W) in liquid, room temperature 24 hr) was “∘”, the solubility (Table 2: citric acid 80 g, water 50 g, His 120 g, acidic substance/HIS 0.67 W/W, pH before His addition 0.10, HIS concentration 48.0 % (W/W) in liquid, room temperature 24 hr) was “∘” and the solubility (Table 2: citric acid 120 g, water 50 g, His 180 g, acidic substance/HIS 0.67 W/W, HIS concentration 51.4 % (W/W) in liquid, room temperature 24 hr) was “∘”. For the same molecule, the solubility (Table 2: malic acid 60 g, water 50 g, His 90 g, acidic substance/HIS 0.67 W/W, pH before His addition 0.40, HIS concentration 45.0 % (W/W) in liquid, room temperature 24 hr) was “∘”, the solubility (Table 2: malic acid 70 g, water 50 g, His 100 g, acidic substance/HIS 0.70 W/W, HIS concentration 45.5 % (W/W) in liquid, room temperature 24 hr) was “∘” and the solubility (Table 2: tartaric acid 60 g, water 50 g, His 90 g, acidic substance/HIS 0.67 W/W, pH before His addition 0.20, HIS concentration 45.0 % (W/W) in liquid, room temperature 24 hr) was “∘”. The solubility (Table 2: tartaric acid 60 g, water 50 g, His 100 g, acidic substance/HIS 0.60 W/W, pH before His addition 0.20, HIS concentration 47.6 % (W/W) in liquid, room temperature 24 hr) was “∘”, the solubility of histidine (Table 3: amount of histidine added to acidic aqueous solution (water 50 g, citric acid 60 g) reduced) was “fine” and the solubility (Table 3: citric acid 60 g, water 50 g, His 30 g, acidic substance/HIS 2.00 W/W, HIS concentration 21.4 % (W/W) in liquid, room temperature 24 hr) was “◯”. For the same molecule, the solubility (Table 3: citric acid 60 g, water 50 g, His 50 g, acidic substance/HIS 1.20 W/W, HIS concentration 31.3 % (W/W) in liquid, room temperature 24 hr) was “◯”, the solubility (Table 3: citric acid 60 g, water 50 g, His 70 g, acidic substance/HIS 0.86 W/W, HIS concentration 38.9 % (W/W) in liquid, room temperature 24 hr) was “◯” and the solubility (Table 3: citric acid 60 g, water 50 g, His 90 g, acidic substance/HIS 0.67 W/W, HIS concentration 45.0 % (W/W) in liquid, room temperature 24 hr) was “◯”. The solubility (Table 4: citric acid 20.0 g, water 50 g, His 30 g, acidic substance/HIS 0.67 W/W, HIS concentration 30.0 % (W/W) in liquid, room temperature 24 hr) was “◯”, the solubility (Table 4: citric acid 33.3 g, water 50 g, His 50 g, acidic substance/HIS 0.67 W/W, HIS concentration 37.5 % (W/W) in liquid, room temperature 24 hr) was “◯” and the solubility (Table 4: citric acid 46.7 g, water 50 g, His 70 g, acidic substance/HIS 0.67 W/W, HIS concentration 42.0 % (W/W) in liquid, room temperature 24 hr) was “◯”. The solubility (Table 4: citric acid 60 g, water 50 g, His 90 g, acidic substance/HIS 0.67 W/W, HIS concentration 45.0 % (W/W) in liquid, room temperature 24 hr) was “◯”, the solubility of histidine (Table 4: histidine and acidic substance reduced at constant ratio, acidic substance/HIS=0.67 (w/w)) was “fine” and the solubility (Table 5 (*1): citric acid 60 g, water 27.8 g, His 50 g, acidic substance/HIS 1.20 W/W, HIS concentration 36.3 % (W/W) in liquid, HIS content 180 % (W/W) to water, room temperature 24 hr) was “◯”. The solubility (Table 5 (*2): citric acid 60 g, water 16.7 g, His 30 g, acidic substance/HIS 2.00 W/W, HIS concentration 28.1 % (W/W) in liquid, HIS content 180 % (W/W) to water) was “◯”, the solubility (Table 5: citric acid 60 g, water 38.9 g, His 70 g, acidic substance/HIS 0.86 W/W, HIS concentration 41.4 % (W/W) in liquid, HIS content 180 % (W/W) to water, room temperature 24 hr) was “◯” and the solubility (Table 5: citric acid 60 g, water 50 g, His 90 g, acidic substance/HIS 0.67 W/W, HIS concentration 45.0 % (W/W) in liquid, HIS content 180 % (W/W) to water, room temperature 24 hr) was “◯”. For the same molecule, the solubility of histidine (Table 5: histidine and water reduced at constant ratio, histidine content to water=180% (w/w)) was “fine”, the solubility (Table 6: citric acid 2.7 g, water 37.3 g, His 10 g, acidic substance/HIS 0.27 W/W, HIS concentration 20.0 % (W/W) in liquid, room temperature 24 hr) was “∘” and the solubility (Table 6: citric acid 3.7 g, water 36.3 g, His 10 g, acidic substance/HIS 0.37 W/W, HIS concentration 20.0 % (W/W) in liquid, room temperature 24 hr) was “∘”. The solubility (Table 6: citric acid 4.7 g, water 35.3 g, His 10 g, acidic substance/HIS 0.47 W/W, HIS concentration 20.0 % (W/W) in liquid, room temperature 24 hr) was “∘”, the solubility (Table 6: citric acid 5.7 g, water 34.3 g, His 10 g, acidic substance/HIS 0.57 W/W, HIS concentration 20.0 % (W/W) in liquid, room temperature 24 hr) was “∘” and the solubility (Table 6: citric acid 6.7 g, water 33.3 g, His 10 g, acidic substance/HIS 0.67 W/W, HIS concentration 20.0 % (W/W) in liquid, room temperature 24 hr) was “∘”. The solubility (Table 6: malic acid 2.7 g, water 37.3 g, His 10 g, acidic substance/HIS 0.27 W/W, HIS concentration 20.0 % (W/W) in liquid, room temperature 24 hr) was “∘”, the solubility (Table 7: citric acid 6.0 g, water 29.0 g, His 15 g, acidic substance/HIS 0.40 W/W, HIS concentration 30.0 % (W/W) in liquid, room temperature 24 hr) was “∘” and the solubility (Table 7: citric acid 7.0 g, water 28.0 g, His 15 g, acidic substance/HIS 0.47 W/W, HIS concentration 30.0 % (W/W) in liquid, room temperature 24 hr) was “∘”. The solubility (Table 7: citric acid 8.0 g, water 27.0 g, His 15 g, acidic substance/HIS 0.53 W/W, HIS concentration 30.0 % (W/W) in liquid, room temperature 24 hr) was “∘”, the solubility (Table 7: citric acid 9.0 g, water 26.0 g, His 15 g, acidic substance/HIS 0.60 W/W, HIS concentration 30.0 % (W/W) in liquid, room temperature 24 hr) was “∘” and the solubility (Table 7: citric acid 10.0 g, water 25.0 g, His 15 g, acidic substance/HIS 0.67 W/W, HIS concentration 30.0 % (W/W) in liquid, room temperature 24 hr) was “∘”. The solubility (Table 7: malic acid 6.0 g, water 29.0 g, His 15 g, acidic substance/HIS 0.40 W/W, HIS concentration 30.0 % (W/W) in liquid, room temperature 24 hr) was “∘”, the solubility of histidine (acetic acid or phosphoric acid as acidic substance, acidic aqueous solution pH of not more than 1.0, room temperature 24 hr) was “not dissolved or, even when dissolved, precipitated” and the solubility of histidine (citric acid, malic acid or tartaric acid as acidic substance, pH of not more than 1.0, amount corresponding to concentration of not less than 45 wt %) was “finely dissolved”. For the same molecule, the solubility of histidine (histidine 20 wt %, 0.17 part by weight of acidic substance per 1 part by weight of histidine) was “not dissolved”, the solubility of histidine (histidine 20 wt %, not less than 0.27 part by weight of acidic substance per 1 part by weight of histidine) was “fine” and the solubility of histidine (histidine 30 wt %, 0.33 part by weight of acidic substance per 1 part by weight of histidine) was “not dissolved”. The solubility of histidine (histidine 30 wt %, not less than 0.40 part by weight of acidic substance per 1 part by weight of histidine) was “fine” and the “histidine concentration of liquid composition that could be prepared” value (not less than 0.65 part by weight of citric acid, not less than 0.67 of malic acid, or not less than 0.60 of tartaric acid per 1 part by weight of histidine) was “not less than 45 wt %”.
